{"source": "patent US20210401931A1", "about": "“METHODS AND MATERIALS FOR TREATING CANCER” (Mayo Foundation for Medical Education and Research, priority 2018, published 2021)", "test_system": "NF-κB site of the PD-L1 promoter", "assay": "EMSA with biotin-labeled PD-L1-prom oligonucleotide and PC-3 nuclear extracts", "assay_type": "cell-based, human", "settings": "PC-3 cells expressing peptide", "source_text": "FIGS. 11A-H. (A) Heatmap showing differentially expressed genes (FDR<0.01) between palbociclib treatment versus DMSO and knockdown RB1 versus control. Gene expression values (FPKM) were Z-score normalized. FPKM, Fragments Per Kilobase of transcript per Million mapped reads. (B) UCSC Genome Browser screenshots of meta-analysis of published RB ChIP high throughput sequencing (ChIP-seq) data showing RB binding to CD274 (PD-L1) gene locus in K562 cells. PD-L1-prom oligonucleotide DNA containing NF-κB binding sequence was shown in the RB binding peak in the PD-L1 gene, the corresponding mutant PD-L1-prom oligonucleotide DNA was shown below. FIG. 11B discloses SEQ ID NOS 279-280, respectively, in order of appearance. (C) ChIP-qPCR analysis of RB binds at the PD-L1 promotor in PC-3 cells. All data were shown as mean values±SD (n=3). *** P<0.001. (D) ChIP-reChIP analysis examining the co-localization of p65 and RB in the PD-L1 promoters. All data were shown as mean values±SD (n=3). ** P<0.01. […]\nFIGS. 21A-N. Effect of RB depletion, cell cycle, and RB-N S249/T252 phospho-mimicking peptide on PD-L1 expression in cell lines of various cancer types. […] 48 hours after infection, PD-L1 expression was determined by western blotting (A), RT-qPCR (B), and FACS (C). […] (D) Pd-l1 protein and mRNA levels were determined by western blotting in primary SKO and DKO mouse prostate tumor cell lines. […]", "note": "Ends that are not written are not given here."}
{"substance": "RL-S249D/T252D: S249/T252 phospho-mimicking R-Linker (RL) peptide: fragment of RB-N containing 21 amino acids surrounding S249/T252, expressed SFB-tagged or by lentivirus (NGDPRDPRRGQNRSARIAKQL; also: expressed SFB-tagged (tag left off))", "values": [{"measurement": "p65 binding to the cognate DNA in the PD-L1 promoter", "result": "inhibition"}]}
